MIC data for 2 substances are collected here from patent US9238715B2, “Polymerizable composition for ophthalmic and medical use and antimicrobial composition obtained by polymerizing the polymerizable composition” (NANYANG TECHNOLOGICAL UNIVERSITY, priority 2010, dated 2016).

Assay in all cases: MIC by microtiter dilution in Mueller Hinton Broth
Common to all, as to settings: 5×10^5 CFU/ml, 37° C., 18 hours, A600

The test system of one assay is P. aeruginosa. It counts as cell-based, Pseudomonas aeruginosa. Here is the method: (§1) Minimal inhibitory concentrations (MIC) were determined by a standard microtiter dilution method in Mueller Hinton Broth (MHB) medium. Bacteria cells were grown overnight at 37° C. in MHB medium and diluted to a bacteria concentration of 10^6 colony forming units (CFU)/ml. The bacteria concentration was adjusted to 5×10^5 CFU/ml by adding 100 μl of a suspension of the bacteria cultured under the above conditions to 100 μl of a polylysine aqueous solution diluted to 10^3 to 1 μg/ml, and samples were prepared. The samples were incubated at 37° C. for 18 hours, and the MICs (lowest polylysine concentration that inhibited cell growth) after 18 hours were determined.

For another assay, the system named is C. albicans. It counts as cell-based, Candida albicans. Here is the method:
as §1

A further assay has as its system E. Coli. Format: cell-based, Escherichia coli. Here is the method: as §1
The next assay has as its system S. marcescence. It counts as cell-based, Serratia marcescens. Here is the method:
as §1

The subject of another assay is F. solani. It counts as cell-based, Fusarium solani. As to the method:
as §1

In a further assay the test system is S. aureus. It counts as cell-based, Staphylococcus aureus. Here is the method:
as §1

What is called MIC is the lowest concentration that inhibits growth of the organism. Higher therefore signals a need for much substance. Regarding epsilon-polylysine [EPL], the minimum inhibitory concentration (MIC) with P. aeruginosa turned out to be 7.8 µg/mL; with C. albicans, 54 µg/mL; with E. Coli, 7.8 µg/mL; against S. marcescence, 15.6 µg/mL; against F. solani, 109 µg/mL; against S. aureus, 7.8 µg/mL.
For “methacrylated epsilon-polylysine [MA-EPL]”, the MIC against P. aeruginosa worked out at 7.8 µg/mL; in the assay with C. albicans it was 27 µg/mL; with E. Coli, 7.8 µg/mL; in the assay on S. marcescence, 15.6 µg/mL; with F. solani, 54 µg/mL.
